Source: US7312248B2, “Control of parasites in animals by the use of novel trifluoromethanesulfonanilide oxime ether derivatives” (Schering-Plough Animal Health Corporation, priority 2004, dated 2007)
Read-outs that look alike come from different tables or passages of the source.

Columns and labels:
Format in all cases: in vivo
[1] = system: Brown Dog Tick (Rhipicephalus sanguineus); assay: Rapid screening protocol for topical application on brown dog ticks; settings: for R. sanguineus Mortality (%) 48 h: Laboratory 2 F data
Procedure: d) Rapid Screening Protocol for Topical Application on Brown Dog Ticks (Rhipicephalus sanguineus)
The aim of the test was to determine the presence of significant acaricidal activity in sample compounds or formulations when applied topically on brown dog ticks. A tick was defined as dead if it gave no apparent response when touched lightly and observed for 1 minute. […] Both permethrin and fipronil were employed as reference compounds. The insect species tested was the Brown Dog Tick (Rhipicephalus sanguineus). Mixed sex adult ticks were used for tests. The strain used was cultured by von Berky Veterinary Services, Woody Point, QLD, AU and supplied as unfed adult ticks (mixed sex). Ticks were maintained in controlled conditions (temp. 18°+2° C., humidity 75±5% RH).
Temperature was maintained at 25±1° C. and the humidity was ambient. […] Ticks were each treated on the abdomen with 1 μL of a single dose level of test sample in acetone; ten ticks were treated with solvent only (acetone) in each test. Tests were replicated 4 times (total of 40 ticks treated). […]

[2] = system: cat flea (Ctenocephalides felis); assay: whole plant or invertebrate; settings: Ctenocephalides felis; for mortality at 1.26 µg/cm2: single concentration 1.26 μg/cm^2 on treated glass, adult fleas
How it was run: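 Adult C. felis (3-7 days post-emergence; 15 per flask, at least 4 replicates) exposed to a glass flask base dried 24 h after coating with compound in acetone at 1.26 μg/cm^2. Held at 25±1 °C, 75±5% humidity; mortality (immobile or unable to right) scored at 8, 24 and/or 48 h as percentage.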

[3] = system: cat flea (Ctenocephalides felis); assay: Ctenocephalides felis adulticide assay: dose response (LC50)
Description: c) Ctenocephalides felis Adulticide Assay: C. felis Dose Response
The purpose of this example was to determine the LC50 when cat fleas were contacted with a glass surface treated with sample compounds or formulations prepared as described above. Mortality of fleas was defined as follows: fleas were considered dead if they didn't move or were on their sides and unable to walk or right themselves. LC50: Lethal Concentration 50—concentration of glass surface treatment at which 50% of the cat fleas were killed. The test species was the cat flea (Ctenocephalides felis). The strain used was obtained from external suppliers as pupae and held in the laboratory under testing conditions until the adults had emerged. Fifteen (15) fleas were used in a minimum of four replicates for each dose level (total of 60 fleas per dose level). The insects were selected to be in the adult life stage, aged between 3 and 7 days post emergence.
The compounds to be tested were dissolved in acetone just prior to testing. Samples of compounds were stored in a refrigerator (5±1° C.) unless otherwise specified. During the mortality testing, the temperature was maintained at 25+1° C. Humidity was maintained at 75±5%. The base (area=159 mm^2) of a 100 mL glass Erlenmeyer (conical) flask provided the treatment surface. Flasks were pretreated with Coatasil™ glass treatment to maximise bio-availability of test compounds by preventing them from binding to the glass surface.
Six dose levels (concentrations) of test sample, in the form of a serial dilution, were derived from a pilot study and covered a range that produced very low to very high mortality. The base of the 100 mL Erlenmeyer flask was treated with 0.5 mL of test sample in acetone and gently swirled. This volume was sufficient to cover the base of the flask. Flasks were left to dry for 24 hours before flea exposure. Adult cat fleas were lightly anaesthetised by cooling and then placed into a sorting chamber, which allowed fleas to revive and jump into the Erlenmeyer flasks. Fifteen (15)adult cat fleas were collected in each flask. The top of the flasks were then covered in Parafilm™ and small holes made to allow gas exchange. A 0.5 mL volume of acetone was applied to the base of an Erlenmeyer flask and the testing proceeded in the same manner described above. Cat fleas in the treatment containers were held under testing conditions for 24 hours. Mortality resulting from the treatments was recorded at 8 and 24 hours.

[4] = system: Haemonchus contortus; assay: Haemonchus contortus larvacidal (larval development) assay; settings: 144 h, read-out: Haemonchus contortus LD99
Procedure: a) Haemonchus Contortus Larvacidal Assay:
The effect of compounds on larval development was determined in the assay described by Gill et al. (1995, International Journal of Parasitology 25:463-470). Briefly, in this assay, nematode eggs were applied to the surface of an agar matrix containing the test compound and then allowed to develop through to the L3, infective stage (6 days). The wells for each dilution of every compound (from highest to lowest concentration) were inspected to determine the well number corresponding to the lowest concentration at which development was inhibited in 99% of the nematode larvae present (LD99). Because well numbers correspond to a two-fold serial dilution of each compound, a titre (dilution factor) is generated as 2^n−1, where n is the well number. By dividing the highest concentration tested by the titre an LD99 value can be obtained, representing the concentration required to inhibit development in 99% of the nematode larvae present. The compounds supplied as solid and viscous liquids were dissolved in DMSO. Twelve serial one-half dilutions in DMSO solution were prepared from the stock solution, each of which was then diluted ⅕ with water. Aliquots (10 μl) of each dilution were transferred to the bioassay plates to give a final concentration range of 0.024 to 50 μg/ml.

[5] = 8 h, read-out: C. felis Mortality (%) 8 h, 8 h, Laboratory 2 B data
[6] = 24 h, read-out: C. felis Mortality (%) 24 h, 24 h, Laboratory 2 B data
[7] = 24 h, read-out: C. felis Mortality (%) 24 h, 24 h, Laboratory 1 A data
[8] = 8 h, read-out: C. felis Mortality (%) 8 h, 8 h, Laboratory 1 A data

Compound: CCOC(=O)N(c1ccc(Cl)cc1/C(C)=N/Oc1ccc(F)cc1)S(=O)(=O)C(F)(F)F [Compound 310, N-carbonylethoxy-N-{4-chloro-2-[1-(4-fluorophenoxyimino)ethyl]phenyl}trifluoromethanesulfonamide]
- Rhipicephalus sanguineus Mortality (%) 24 h ([1]; 24 h, topical, 10 μg of active per tick in 1 μL acetone, adult ticks, Laboratory 1 E data): 52%
- mortality at 1.26 µg/cm2 ([2]; 8 h, Laboratory 2 B data, read-out: Ctenocephalides felis Mortality (%) 8 h): 56%
- mortality at 1.26 µg/cm2 ([2]; 24 h, Laboratory 2 B data, read-out: Ctenocephalides felis Mortality (%) 24 h): 100%

Compound: CC/C(=N\OCC1CCCC1)c1cc(Cl)ccc1NS(=O)(=O)C(F)(F)F [Compound 197]
- R. sanguineus Mortality (%) 48 h [1]: 100%
- mortality at 1.26 µg/cm2, 1.26 µg/cm2 [2, 5]: 80%
- mortality at 1.26 µg/cm2, 1.26 µg/cm2 [2, 6]: 97%

Compound: CC/C(=N\OCc1cccnc1)c1cc(Cl)ccc1NS(=O)(=O)C(F)(F)F [Compound 206]
- R. sanguineus Mortality (%) 48 h [1]: 52%
- mortality at 1.26 µg/cm2, 1.26 µg/cm2 [2, 5]: 97%
- mortality at 1.26 µg/cm2, 1.26 µg/cm2 [2, 6]: 100%

Compound: C/C(=N\OCc1cccnc1)c1cc(Cl)ccc1NS(=O)(=O)C(F)(F)F [Compound 188]
- R. sanguineus Mortality (%) 48 h [1]: 40%
- mortality at 1.26 µg/cm2, 1.26 µg/cm2 [2, 5]: 98%
- mortality at 1.26 µg/cm2, 1.26 µg/cm2 [2, 6]: 98%

Compound: C/C(=N\Oc1ccc(Cl)cc1)c1cc(Cl)ccc1NS(=O)(=O)C(F)(F)F [Compound 127]
- C. felis LC50 ([3]; Laboratory 1 C data): 0.3 μg/cm^2
- IC99 [4]: 0.4 µg/mL
- mortality at 1.26 µg/cm2, 1.26 µg/cm2 [2, 7]: 90%

Compound: CCC/C(=N\OCc1ccc(Cl)cc1Cl)c1cc(Cl)ccc1NS(=O)(=O)C(F)(F)F [Compound 100, N-{4-chloro-2-[1-(2,4-dichlorobenzyloxyimino)butyl]}trifluoromethanesulfonamide]
- C. felis LC50 ([3]; Laboratory 1 C data): 0.4 μg/cm^2
- IC99 [4]: 1.8 µg/mL
- mortality at 1.26 µg/cm2, 1.26 µg/cm2 [2, 8]: 58%
- mortality at 1.26 µg/cm2, 1.26 µg/cm2 [2, 7]: 88%

Compound: C/C(=N\OC(C)c1ccc(Cl)cc1)c1cc(Cl)ccc1NS(=O)(=O)C(F)(F)F (stereo not drawn) [Compound 123]
- C. felis LC50 ([3]; Laboratory 1 C data): 1.2 μg/cm^2
- C. felis LC50 ([3]; Laboratory 2 D data): 0.3 μg/cm^2
- IC99 [4]: 0.9 µg/mL
- mortality at 1.26 µg/cm2, 1.26 µg/cm2 [2, 8]: 11%

Compound: C/C(=N\OCC(C)C)c1cc(Cl)ccc1NS(=O)(=O)C(F)(F)F [Compound 172]
- C. felis LC50 ([3]; Laboratory 1 C data): 0.06 μg/cm^2
- mortality at 1.26 µg/cm2, 1.26 µg/cm2 [2, 7]: 100%

Compound: CC/C(=N\Oc1ccc(Cl)c(Cl)c1)c1cc(Cl)ccc1NS(=O)(=O)C(F)(F)F [Compound 139]
- C. felis LC50 ([3]; Laboratory 2 D data): 0.3^D μg/cm^2
- IC99 [4]: 0.9 µg/mL
- mortality at 1.26 µg/cm2, 1.26 µg/cm2 [2, 7]: 64%

Compound: CC/C(=N\OCc1ccc(Cl)c(Cl)c1)c1cc(Cl)ccc1NS(=O)(=O)C(F)(F)F [Compound 79]
- C. felis LC50 ([3]; Laboratory 1 C data): 0.6 μg/cm^2
- IC99 [4]: 0.6 µg/mL
- mortality at 1.26 µg/cm2, 1.26 µg/cm2 [2, 8]: 73%
- mortality at 1.26 µg/cm2, 1.26 µg/cm2 [2, 7]: 100%

Compound: CC/C(=N\OC1C=CCCC1)c1cc(Cl)ccc1NS(=O)(=O)C(F)(F)F (stereo not drawn) [Compound 170]
- C. felis LC50 ([3]; Laboratory 1 C data): 0.2 μg/cm^2
- mortality at 1.26 µg/cm2, 1.26 µg/cm2 [2, 7]: 97%

Compound: C=CCO/N=C(\C)c1cc(Cl)ccc1NS(=O)(=O)C(F)(F)F [Compound 181]
- C. felis LC50 ([3]; Laboratory 1 C data): 0.1 μg/cm^2
- mortality at 1.26 µg/cm2, 1.26 µg/cm2 [2, 7]: 100%

Compound: C/C(=N\OC1CCCCC1)c1cc(Cl)ccc1NS(=O)(=O)C(F)(F)F [Compound 161]
- C. felis LC50 ([3]; Laboratory 1 C data): 0.2 μg/cm^2
- mortality at 1.26 µg/cm2, 1.26 µg/cm2 [2, 7]: 100%

Compound: O=S(=O)(Nc1ccc(Cl)cc1/C(=N/OCc1ccc(C(F)(F)F)cc1)c1ccccc1)C(F)(F)F [Compound 24]
- C. felis LC50 ([3]; Laboratory 2 D data): 0.8^D μg/cm^2
- IC99 [4]: 2.5 µg/mL
- mortality at 1.26 µg/cm2, 1.26 µg/cm2 [2, 7]: 43%

Compound: CC/C(=N\Oc1cccc(Cl)c1)c1cc(Cl)ccc1NS(=O)(=O)C(F)(F)F [Compound 131]
- C. felis LC50 ([3]; Laboratory 1 C data): 0.7 μg/cm^2
- IC99 [4]: 1.6 µg/mL
- mortality at 1.26 µg/cm2, 1.26 µg/cm2 [2, 7]: 100%

Compound: C/C(=N\OC1CCCC1)c1cc(Cl)ccc1NS(=O)(=O)C(F)(F)F [Compound 163, N-[4-chloro-2-(1-cyclopentyloxyiminoethyl)phenyl]trifluoromethanesulfonamide]
- C. felis LC50 ([3]; Laboratory 1 C data): 0.1 μg/cm^2
- mortality at 1.26 µg/cm2, 1.26 µg/cm2 [2, 7]: 100%

Compound: CC/C(=N\OCc1ccc(Cl)cc1Cl)c1cc(Cl)ccc1NS(=O)(=O)C(F)(F)F [Compound 74]
- C. felis LC50 ([3]; Laboratory 1 C data): 0.2 μg/cm^2
- IC99 [4]: 0.4 µg/mL
- mortality at 1.26 µg/cm2, 1.26 µg/cm2 [2, 8]: 94%

Compound: C/C(=N\OC(C)C)c1cc(Cl)ccc1NS(=O)(=O)C(F)(F)F [Compound 158]
- C. felis LC50 ([3]; Laboratory 1 C data): 0.2 μg/cm^2
- mortality at 1.26 µg/cm2, 1.26 µg/cm2 [2, 7]: 100%

Compound: C/C(=N\Oc1cccc(C(F)(F)F)c1)c1cc(Cl)ccc1NS(=O)(=O)C(F)(F)F [Compound 134, N-{4-chloro-2-[1-(3-trifluoromethylphenoxyimino)ethyl]phenyl}trifluoromethanesulfonamide]
- C. felis LC50 ([3]; Laboratory 1 C data): 0.4 μg/cm^2
- IC99 [4]: 0.4 µg/mL
- mortality at 1.26 µg/cm2, 1.26 µg/cm2 [2, 7]: 96%

Compound: CC/C(=N\OCc1cccc(Cl)c1Cl)c1cc(Cl)ccc1NS(=O)(=O)C(F)(F)F [Compound 72]
- C. felis LC50 ([3]; Laboratory 1 C data): 0.5 μg/cm^2
- IC99 [4]: 0.3 µg/mL
- mortality at 1.26 µg/cm2, 1.26 µg/cm2 [2, 8]: 13%
- mortality at 1.26 µg/cm2, 1.26 µg/cm2 [2, 7]: 63%

Compound: CC/C(=N\OC(CC)CC)c1cc(Cl)ccc1NS(=O)(=O)C(F)(F)F [Compound 171]
- C. felis LC50 ([3]; Laboratory 1 C data): 0.4 μg/cm^2
- mortality at 1.26 µg/cm2, 1.26 µg/cm2 [2, 7]: 100%

Compound: CC/C(=N\OCc1ccccc1Cl)c1cc(Cl)ccc1NS(=O)(=O)C(F)(F)F [Compound 10]
- C. felis LC50 ([3]; Laboratory 1 C data): 0.3 μg/cm^2
- IC99 [4]: 2.7 µg/mL
- mortality at 1.26 µg/cm2, 1.26 µg/cm2 [2, 8]: 56%
- mortality at 1.26 µg/cm2, 1.26 µg/cm2 [2, 7]: 73%

Compound: CC/C(=N\OCC(C)C)c1cc(Cl)ccc1NS(=O)(=O)C(F)(F)F [Compound 159]
- C. felis LC50 ([3]; Laboratory 1 C data): 0.2 μg/cm^2
- mortality at 1.26 µg/cm2, 1.26 µg/cm2 [2, 7]: 100%

Compound: CC/C(=N\OCCOc1ccccc1)c1cc(Cl)ccc1NS(=O)(=O)C(F)(F)F [Compound 106]
- C. felis LC50 ([3]; Laboratory 1 C data): 1.0 μg/cm^2
- IC99 [4]: 11 µg/mL
- mortality at 1.26 µg/cm2, 1.26 µg/cm2 [2, 7]: 48%
